The source of these data is US20250263370A1 (Tay Therapeutics Limited, priority 2022, published 2025).

Where two headings read alike, the source gives them in different places. Some results are limits rather than exact numbers.

Series [1] in a line: Plasma stability assay, rat plasma. It counts as in vitro ADME. To be noted: Method 2 (10 μM). As to the method:
From stock solution of compound in 10 mM DMSO, a working solution of 1 mM is prepared by diluting the compound in DMSO. To 398 μL of plasma pre-warmed at 37° C. for 15 minutes), 2 μL of working solution of compound is added, resulting in a final concentration of 5 μM (0.5% DMSO) for the compound. The sample is then incubated at 37° C. Aliquot is withdrawn at specified time-points (0, 15, 30, 60 and 120 mins). The reaction is stopped by addition of 450 μL cold acetonitrile containing internal standard (IS). […] Aliquots of the supernatant is analysed using LC-MS/MS. The percent remaining of the compound at each time point is calculated with respect to the control sample (0 min time-point).
A working solution of compound (500 μM) is prepared in DMSO (100%). To 735 μL of plasma, 15 μL of working solution of compound is added—resulting in a final concentration of 10 μM (2% DMSO) for the compound. The sample is then incubated at 37° C. Aliquot is withdrawn at time-points—0, 15, 30, 60, 90 and 120 mins. The reaction is stopped by using chilled acetonitrile containing internal standard (IS). The samples are centrifuged and the supernatants analyzed using LC-MS/MS. The percent remaining of the compound at each time point is calculated with respect to the control sample (0 min time-point).

The nature of series [2]: Sprague-Dawley rat pharmacokinetics, IV and PO cassette dosing. The class given is in vivo. To be noted: Method 1; for IV T1/2: IV 1 mg/kg; for PO F: PO 5 mg/kg. As to the method:
Compounds were formulated in 5% DMSO, 40% PEG-400, 55% Milli-Q water at a concentration of 0.2 mg/mL for IV and at 0.5 mg/mL for PO. Two male Sprague-Dawley rats per arm were dosed with up to 5 compounds in cassette mode, which each compound being dosed at 1 mg/kg IV and 5 mg/kg PO. Blood was sampled at various timepoints and plasma isolated. 50 μL of plasma with 5 μL of blank Sprague-Dawley rat plasma were added to 200 μL of acetonitrile containing IS mixture. The samples were vortexed for 30 s. After centrifugation at 4 degrees Celsius, 3900 rpm for 15 min, the supernatant was diluted 3 times with water. 20 μL of diluted supernatant was injected into the LC/MS/MS system for quantitative analysis and concentration of analyte determined by comparison with matrix matched standard curve. WinNonlin (Phoenix™, version 8.3) or other similar software may be used for pharmacokinetic calculations.

The target in another series is BRD4 BD2 (Homo sapiens (Human), UniProt O60885). Nature of the series: NanoBRET bromodomain assay, NanoLuc-BRD4-BD2 fusion in HEK293 cells.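 As to all read-outs here: tracer displacement BRET read in transfected cells after 2 h compound exposure at 37 °C, signal in milliBRET units corrected against no-tracer background wells.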 Conditions: for IC50: BRD4 BD2 (IC50), NanoBRET, HEK293 cells, top concentration 10 μM; for Fold selectivity: IC50 for BRD4 BD1 divided by IC50 for BRD4 BD2, qualitative if an IC50 is at the upper limit.
The target in a further series is BRD4 BD1 (Homo sapiens (Human), UniProt O60885). Nature of the series: NanoBRET bromodomain assay, NanoLuc-BRD4-BD1 fusion in HEK293 cells. It counts as cell-based. Conditions: top concentration 10 μM.
The nature of series [3]: Intrinsic clearance in liver microsomes, rat. It counts as in vitro ADME. To be noted: rat, liver microsomes, pH 7.4, rat liver microsomes, read-out: Half-Life (T1/2) (min), Rat. As to the method: From stock solution of compound on 10 mM DMSO, a working solution of 0.1 mM is prepared by diluting the compound in DMSO. 6.25 μL of a 20 mg/mL solution of microsomes in PBS pH 7.4 buffer is added to 216.25 μL PBS pH 7.4 buffer (final microsome concentration—0.5 mg/mL). 25 μL of 10 mM solution of NADPH in PBS pH 7.4 buffer is added to the incubations (final NADPH concentration—1 mM). The mixture is pre-warmed to 37° C. for 10 minutes. 2.5 μL of test compound working solution is added (final compound concentration—1 μM with 1% DMSO). Aliquots of 30 μL are taken from the reaction solution at 0.5, 5, 15, 30 and 60 minutes. The reaction was stopped by the addition of 5 volumes of cold acetonitrile with IS (100 nM alprazolam, 200 nM caffeine and 100 nM tolbutamide). Samples were centrifuged at 3, 220 g for 40 minutes. Aliquots of 100 μL of the supernatant are mixed with 100 μL of ultra-pure H2O and used for LC-MS/MS analysis. The percent compound remaining at each time point is calculated with respect to that of the 0.5 min sample. The data are analysed to calculate half-life. Control experiments are run without NADPH and blank samples are prepared using DMSO without the test compound.
A 50 mM stock solution (in DMSO) is prepared for the compound. From the stock solution, a working solution of 0.5 mM is prepared by diluting the compound in DMSO. This concentration of working solution is prepared considering a final concentration of 1 uM with 0.1% DMSO. The compound (1 μL of working solution) is spiked in PBS with pH 7.4 ([…]) at a concentration of 1 μM. Subsequently, 110 μL of 10 mM NADPH is added (as a co-factor). The sample is incubated at 37° C. for 15 min. Following this, pre-warmed liver microsomes (27.5 μL; final protein conc. 0.5 mg/mL) are added. The samples are then incubated at 37° C. Aliquots of samples are withdrawn at 0, 5, 15, 30, 45 and 60 min. The reaction is stopped by using chilled acetonitrile containing internal standard. The samples are centrifuged, and the supernatants analysed by LC-MS/MS. The percent compound remaining at each time point is calculated with respect to that of the 0 min sample. The data are then analysed to calculate half-life and intrinsic clearance (CLint). Control experiments are run without NADPH and blank samples are prepared using DMSO without the test compound.
On the technique in general: Microsomes from liver hold many membrane-bound enzymes, among them those of drug oxidation.

As usually defined, the IC50 is the concentration that gives 50% inhibition. Higher therefore signals weaker potency in that assay. As to `CNC(=O)c1[nH]c(C(=O)NC2CCC2)cc1OC(C)c1ccc(Cl)cc1` (single isomer, unassigned) [Example 27, 3-(1-(4-chlorophenyl)ethoxy)-N^5-cyclobutyl-N^2-methyl-1H-pyrrole-2,5-dicarboxamide], in series [1], the “Plasma Stability (% remaining at 120 minutes), Rat” value is listed as 47%. Moreover, in series [2], the “IV T1/2” value worked out at 24 min and the “PO F” value worked out at 47%. Moreover, at BRD4 BD2, the IC50 was under 50 nM and the Fold selectivity entry was “XXX (Fold >200)”. Also, at BRD4 BD1, the IC50 is at least 10000 nM. Further, the half-life at 1 μM in series [3] (Method 1) is 47 min.

With `CNC(=O)c1[nH]c(C(=O)NC2COC2)cc1OC(C)c1ccc(Cl)cc1` (single isomer, unassigned) [Example 31, 3-(1-(4-chlorophenyl)ethoxy)-N^2-methyl-N^5-(oxetan-3-yl)-1H-pyrrole-2,5-dicarboxamide], the “Plasma Stability (% remaining at 120 minutes), Rat” value in series [1] is 81%. For the same compound, in series [2], the “IV T1/2” value came out at 36 min and the “PO F” value was 15%. Further, the Fold selectivity result on BRD4 BD2 was “XX (Fold >50 and ≤200)”. Moreover, the half-life at 1 μM in series [3] (Method 1) was over 60 min.

As for `CNC(=O)c1[nH]c(C(=O)NC2CCC2)cc1OC(C)c1ccc(Cl)cc1F` (single isomer, unassigned) [Example 35, 3-(1-(4-chloro-2-fluorophenyl)ethoxy)-N^5-cyclobutyl-N^2-methyl-1H-pyrrole-2,5-dicarboxamide], the “Plasma Stability (% remaining at 120 minutes), Rat” value in series [1] is 67%. In addition, in series [2], the “IV T1/2” value was 30 min and the “PO F” value is 65%. Besides, at BRD4 BD2, the IC50 is under 50 nM and the Fold selectivity entry is listed as “XXX (Fold >200)”. This compound returned an IC50 against BRD4 BD1 of at least 10000 nM. Also, in series [3] (Method 1), the half-life at 1 μM was 46 min.

For `CNC(=O)c1[nH]c(C(=O)NC2COC2)cc1OC(C)c1ccccc1F` (single isomer, unassigned) [Example 47, 3-(1-(2-fluorophenyl)ethoxy)-N^2-methyl-N^5-(oxetan-3-yl)-1H-pyrrole-2,5-dicarboxamide], the “Plasma Stability (% remaining at 120 minutes), Rat” value in series [1] was 76%. For the same compound, the IC50 at BRD4 BD2 is 50 to 200 nM; on BRD4 BD1, at least 10000 nM. Also, the Fold selectivity result at BRD4 BD2 is “XX (Fold >50 and ≤200)”. The half-life at 1 μM in series [3] (Method 2) is over 60 min.

`CCNC(=O)c1cc(OC(C)c2ccc(Br)cc2)c(C(=O)NC)[nH]1` (single isomer, unassigned) [Example 49, 3-(1-(4-bromophenyl)ethoxy)-N^5-ethyl-N^2-methyl-1H-pyrrole-2,5-dicarboxamide]: the “Plasma Stability (% remaining at 120 minutes), Rat” value in series [1] turned out to be 90%. Besides, on BRD4 BD2, the IC50 is under 50 nM and the Fold selectivity result is reported as “XXX (Fold >200)”. The same compound had an IC50 against BRD4 BD1 of at least 10000 nM. Further, the half-life at 1 μM in series [3] (Method 2) was over 60 min.

As for `CCNC(=O)c1cc(OC(C)c2ccc(I)cc2)c(C(=O)NC)[nH]1` (single isomer, unassigned) [Example 51, N^5-ethyl-3-(1-(4-iodophenyl)ethoxy)-N^2-methyl-1H-pyrrole-2,5-dicarboxamide], the “Plasma Stability (% remaining at 120 minutes), Rat” value in series [1] was 93%. At BRD4 BD2, the IC50 is under 50 nM and the Fold selectivity entry is listed as “XXX (Fold >200)”. This compound also yielded an IC50 at BRD4 BD1 of at least 10000 nM. Moreover, the half-life at 1 μM in series [3] (Method 2) was over 60 min.

In the case of `CCNC(=O)c1cc(OC(c2ccccc2)c2ccccc2)c(C(=O)NC)[nH]1` [Example 53, 3-(benzhydryloxy)-N^5-ethyl-N^2-methyl-1H-pyrrole-2,5-dicarboxamide], in series [1], the “Plasma Stability (% remaining at 120 minutes), Rat” value was 91%. Further, at BRD4 BD2, the IC50 was in the range of 50 to 200 nM; the Fold selectivity entry was “XX (Fold >50 and ≤200)”. The compound further registered an IC50 against BRD4 BD1 of at least 10000 nM. In addition, the half-life at 1 μM in series [3] (Method 2) is over 60 min.

As for `CNC(=O)c1[nH]c(C(=O)NCC(F)(F)F)cc1O[C@@H](C)c1ccccc1` [Example 54, (S)—N^2-methyl-3-(1-phenylethoxy)-N^5-(2,2,2-trifluoroethyl)-1H-pyrrole-2,5-dicarboxamide], the “Plasma Stability (% remaining at 120 minutes), Rat” value in series [1] is recorded as 93%. For the same compound, the values for the IC50 on BRD4 BD2 and against BRD4 BD1 were 50 to 200 nM and at least 10000 nM, respectively. The Fold selectivity result on BRD4 BD2 is “XX (Fold >50 and ≤200)”. Also, the half-life at 1 μM in series [3] (Method 2) was over 60 min.

Regarding `CNC(=O)c1[nH]c(C(=O)NC(C)C)cc1O[C@@H](C)c1ccc(Cl)cc1` [Example 61, (S)-3-(1-(4-chlorophenyl)ethoxy)-N^5-isopropyl-N^2-methyl-1H-pyrrole-2,5-dicarboxamide], the “Plasma Stability (% remaining at 120 minutes), Rat” value in series [1] was determined as 81%. Besides, at BRD4 BD2, the IC50 lay in the range of 50 to 200 nM; the Fold selectivity entry was “XX (Fold >50 and ≤200)”. Moreover, the IC50 at BRD4 BD1 is at least 10000 nM. For the same compound, in series [3] (Method 2), the half-life at 1 μM is over 60 min.

For the compound `CNC(=O)c1[nH]c(-c2ncc(C)[nH]2)cc1O[C@@H](C)c1ccccc1F` [Example 68, (S)-3-(1-(2-fluorophenyl)ethoxy)-N-methyl-5-(5-methyl-1H-imidazol-2-yl)-1H-pyrrole-2-carboxamide], in series [1], the “Plasma Stability (% remaining at 120 minutes), Rat” value is 75%. Further, on BRD4 BD2, the IC50 was under 50 nM and the Fold selectivity entry was “XXX (Fold >200)”. This compound also yielded an IC50 on BRD4 BD1 of at least 10000 nM. In series [3] (Method 2), the half-life at 1 μM was determined as 23 min.

For `CNC(=O)c1[nH]c(-c2ncc(C)[nH]2)cc1O[C@@H](C)c1ccc(Cl)cc1` [Example 69, (S)-3-(1-(4-chlorophenyl)ethoxy)-N-methyl-5-(5-methyl-1H-imidazol-2-yl)-1H-pyrrole-2-carboxamide], in series [1], the “Plasma Stability (% remaining at 120 minutes), Rat” value is 83%. The IC50 was under 50 nM at BRD4 BD2 and at least 10000 nM at BRD4 BD1. The Fold selectivity result on BRD4 BD2 is “XXX (Fold >200)”. Also, the half-life at 1 μM in series [3] (Method 2) is 21 min.

Consider `CCNC(=O)c1[nH]c(C(=O)NC)c(O[C@@H](C)c2ccccc2F)c1Br` [Example 72, (S)-3-bromo-N^2-ethyl-4-(1-(2-fluorophenyl)ethoxy)-N^5-methyl-1H-pyrrole-2,5-dicarboxamide], for which, in series [1], the “Plasma Stability (% remaining at 120 minutes), Rat” value was 9%. On BRD4 BD2, the IC50 was over 10000 nM; the Fold selectivity entry is “— (Fold ≥0 and ≤2)”. The half-life at 1 μM in series [3] (Method 2) worked out at 13 min.
